In one assay the target is T1, IGF-1R (Homo sapiens, UniProt P08069).
T1 construct: other kinases of recombinant human cytoplasmic domain
In words: radiometric kinase assay, other kinases: IGF-1R. Format: biochemical. Particulars: duplicate. How it is done:
(§1) Compound inhibition in a radiometric based mixed micelle assay: In a final reaction volume of 25 μL, TrkA (h) ([…]) is incubated with the kinase reaction buffer (20 mM HEPES (pH 7.5), 10 mM MgCl2, 1 mM EGTA, 0.02% Brij 35, 0.02 mg/ml BSA, 0.1 mM Na3VO4, 2 mM DTT, 1% DMSO), 0.2 mg/ml substrate PolyEY(4:1) and […], and [^33P-ATP](specific activity approx. 500 cpm/pmol, concentration as required). The reaction is initiated by the addition of the MgATP mix. After incubation for at least 40 minutes at room temperature, the reaction is stopped by the addition of 5 μL of a 3% phosphoric acid solution. 10 μL of the reaction is then spotted onto a P30 filtermat and washed three times for 5 minutes in 75 mM phosphoric acid and once in methanol prior to drying and scintillation counting. TrkA: Recombinant Human Cytoplasmic Domain (amino acids 441-796), Histidine-tagged, expressed in insect cells. Activated in vitro via auto-phosphorylation. Mw=42.8 kDa. Substrates for kinases: poly(EY) for TRKA; poly(EY)(4:1) with 2 mM MnCl2, average Mw=16 kDa Standard conditions (unless otherwise specified): 30 nM TRKA, 0.2 mg/ml poly(EY)+2 mM MnCl2, and 10 μM ([γ-^33P]) ATP. Using the similar assay condition with other kinases of recombinant human cytoplasmic domain, the activities of other kinases could be also measured.

For a further assay, the target named is T2, FGFR1 (Homo sapiens, UniProt P11362).
T2 construct: other kinases of recombinant human cytoplasmic domain
T2 sequence (P11362 398-822 limits assumed): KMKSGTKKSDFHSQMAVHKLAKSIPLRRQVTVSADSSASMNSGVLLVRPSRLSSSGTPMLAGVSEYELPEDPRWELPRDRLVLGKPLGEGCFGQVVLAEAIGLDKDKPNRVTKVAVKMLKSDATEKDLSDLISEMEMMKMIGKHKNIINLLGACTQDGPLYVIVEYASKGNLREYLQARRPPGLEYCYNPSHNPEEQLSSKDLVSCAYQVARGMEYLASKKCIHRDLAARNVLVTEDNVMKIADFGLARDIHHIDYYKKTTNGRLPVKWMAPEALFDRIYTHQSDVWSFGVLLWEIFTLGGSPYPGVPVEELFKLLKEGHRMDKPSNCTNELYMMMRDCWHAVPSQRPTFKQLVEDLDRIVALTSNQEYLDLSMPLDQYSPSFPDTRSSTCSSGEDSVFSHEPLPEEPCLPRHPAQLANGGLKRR
The assay can be described thus: radiometric kinase assay, other kinases: FGFR1. It counts as biochemical. The conditions noted are these: duplicate. How it is done: as §1

The target of assay [1] is other more than 400 kinases. The assay can be described thus: radiometric kinase assay, kinase panel. The conditions noted are these: duplicate. It counts as biochemical, human. How it is done: as §1
A further assay addresses MEK2 (Homo sapiens, UniProt P36507). The assay can be described thus: radiometric kinase assay, other kinases: MEK2. Format: biochemical. Particulars: duplicate. As to the method: as §1
Assay [2] has as its system HepG2 human liver cancer cells. In words: Cell Viability and Proliferation Assay, HepG2. Format: cell-based. The conditions noted are these: after 24 incubation. How it is done: (§2) Cell Viability and Proliferation Assays. To assess the chemosensitivity of tumor cells, cell viability is measured by CellTiter-Glo® Luminescent Cell Viability Assay (Promega; Wis., USA) per the manufacturer's instruction. Briefly, 5×10^3 to 7×10^5 cells/ml are cultured in sterile 96-well plates in the presence of increasing concentrations of the drugs (test article, 0 to 100 μM), or vehicle in RPMI medium. The plates are then incubated for 24 to 96 h, and then 100 μl of CellTiter-Glo reagent is added to lyse the cells. After a 10-min incubation at room temperature, the luminescence is recorded in a luminometer with an integration time of 1 s per well. The luminescence signals for the drug-treated cells are normalized by the luminescence signal obtained from vehicle-treated cells. As an alternative method to quantitate cell viability, the trypan blue exclusion dye method was used. Vehicle- or drug-treated cells were assayed by adding trypan blue solution (0.4% in phosphate-buffered saline [PBS]) to the culture medium. After 3 min, the number of dead cells that retained the dye is compared to the total number of cells to calculate cell viability. GraphPad Prism 5 software is used to calculate IC50 and plot effect-dose curve of drugs. Multiplate reader: EnVision 2104 (PerkinElmer). % of control variability=100*[(X(drug_treated)−L(baseline))/(H(vehicle_control)−L(baseline))]. […]

The next assay has as its target FES/FPS (Homo sapiens, UniProt P07332). The assay can be described thus: radiometric kinase assay, other kinases: FES/FPS. Format: biochemical. The conditions noted are these: duplicate. As to the method:
as §1

In another assay the target is T3, VEGFR3/FLT4 (Homo sapiens, UniProt P35916).
T3 construct: other kinases of recombinant human cytoplasmic domain
T3 sequence (P35916 797-1363 limits assumed): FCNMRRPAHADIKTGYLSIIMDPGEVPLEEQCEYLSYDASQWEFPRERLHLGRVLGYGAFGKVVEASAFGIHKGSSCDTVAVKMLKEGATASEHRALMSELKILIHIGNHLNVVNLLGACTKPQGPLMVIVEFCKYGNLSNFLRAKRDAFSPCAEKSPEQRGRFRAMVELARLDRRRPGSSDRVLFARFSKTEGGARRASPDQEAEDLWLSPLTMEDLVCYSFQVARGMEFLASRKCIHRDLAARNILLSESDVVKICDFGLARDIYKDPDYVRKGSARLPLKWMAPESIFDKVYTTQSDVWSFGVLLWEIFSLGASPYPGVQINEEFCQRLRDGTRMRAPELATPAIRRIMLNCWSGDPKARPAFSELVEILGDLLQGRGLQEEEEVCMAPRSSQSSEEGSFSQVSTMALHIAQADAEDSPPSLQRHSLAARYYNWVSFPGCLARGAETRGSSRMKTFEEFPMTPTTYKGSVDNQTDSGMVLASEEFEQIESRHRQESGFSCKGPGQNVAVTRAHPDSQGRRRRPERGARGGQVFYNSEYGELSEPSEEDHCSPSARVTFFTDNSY
The assay can be described thus: radiometric kinase assay, other kinases: VEGFR3/FLT4. Format: biochemical. The conditions noted are these: duplicate. As to the method: as §1

For the next assay, the target named is ABL1 (Homo sapiens, UniProt P00519). The assay can be described thus: radiometric kinase assay, other kinases: ABL1. Format: biochemical. The conditions noted are these: duplicate. As to the method: as §1
ABL1, sequence (P00519 whole entry): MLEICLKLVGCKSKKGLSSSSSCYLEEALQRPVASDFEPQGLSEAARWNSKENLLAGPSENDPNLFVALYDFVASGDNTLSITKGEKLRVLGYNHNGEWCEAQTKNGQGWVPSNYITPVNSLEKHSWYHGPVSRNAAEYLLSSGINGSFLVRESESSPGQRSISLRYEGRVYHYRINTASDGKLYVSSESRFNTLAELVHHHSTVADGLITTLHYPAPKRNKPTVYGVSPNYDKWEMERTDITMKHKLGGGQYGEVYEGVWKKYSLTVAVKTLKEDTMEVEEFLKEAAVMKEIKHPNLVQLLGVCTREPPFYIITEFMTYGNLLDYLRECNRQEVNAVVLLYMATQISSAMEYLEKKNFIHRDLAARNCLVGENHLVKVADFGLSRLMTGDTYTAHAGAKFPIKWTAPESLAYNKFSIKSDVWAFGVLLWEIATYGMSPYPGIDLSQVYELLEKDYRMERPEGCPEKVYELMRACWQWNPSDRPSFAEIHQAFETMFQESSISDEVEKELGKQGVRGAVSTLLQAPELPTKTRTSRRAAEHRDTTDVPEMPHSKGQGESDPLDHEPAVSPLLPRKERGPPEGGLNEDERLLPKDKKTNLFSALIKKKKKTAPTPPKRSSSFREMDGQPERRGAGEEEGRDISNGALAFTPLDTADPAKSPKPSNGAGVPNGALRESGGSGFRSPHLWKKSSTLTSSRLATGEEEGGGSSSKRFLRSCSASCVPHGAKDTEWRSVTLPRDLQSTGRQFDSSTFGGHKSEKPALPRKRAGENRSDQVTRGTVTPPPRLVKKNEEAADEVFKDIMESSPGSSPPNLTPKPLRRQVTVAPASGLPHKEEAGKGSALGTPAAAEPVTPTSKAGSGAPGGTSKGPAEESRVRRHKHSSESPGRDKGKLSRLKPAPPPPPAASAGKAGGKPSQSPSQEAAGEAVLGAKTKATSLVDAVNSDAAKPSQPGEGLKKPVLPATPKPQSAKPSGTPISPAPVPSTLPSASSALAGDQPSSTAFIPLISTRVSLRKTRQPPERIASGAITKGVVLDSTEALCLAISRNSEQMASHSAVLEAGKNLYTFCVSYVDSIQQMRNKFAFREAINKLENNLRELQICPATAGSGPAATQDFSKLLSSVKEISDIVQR
In the next assay the target is TrkC (Homo sapiens, UniProt Q16288). The assay can be described thus: live whole cell based functional assay, NT3 stimulated TrkC activation. Also on record: expressed in transfected cells. Particulars: triplicate.
TrkC, sequence (Q16288 32-839): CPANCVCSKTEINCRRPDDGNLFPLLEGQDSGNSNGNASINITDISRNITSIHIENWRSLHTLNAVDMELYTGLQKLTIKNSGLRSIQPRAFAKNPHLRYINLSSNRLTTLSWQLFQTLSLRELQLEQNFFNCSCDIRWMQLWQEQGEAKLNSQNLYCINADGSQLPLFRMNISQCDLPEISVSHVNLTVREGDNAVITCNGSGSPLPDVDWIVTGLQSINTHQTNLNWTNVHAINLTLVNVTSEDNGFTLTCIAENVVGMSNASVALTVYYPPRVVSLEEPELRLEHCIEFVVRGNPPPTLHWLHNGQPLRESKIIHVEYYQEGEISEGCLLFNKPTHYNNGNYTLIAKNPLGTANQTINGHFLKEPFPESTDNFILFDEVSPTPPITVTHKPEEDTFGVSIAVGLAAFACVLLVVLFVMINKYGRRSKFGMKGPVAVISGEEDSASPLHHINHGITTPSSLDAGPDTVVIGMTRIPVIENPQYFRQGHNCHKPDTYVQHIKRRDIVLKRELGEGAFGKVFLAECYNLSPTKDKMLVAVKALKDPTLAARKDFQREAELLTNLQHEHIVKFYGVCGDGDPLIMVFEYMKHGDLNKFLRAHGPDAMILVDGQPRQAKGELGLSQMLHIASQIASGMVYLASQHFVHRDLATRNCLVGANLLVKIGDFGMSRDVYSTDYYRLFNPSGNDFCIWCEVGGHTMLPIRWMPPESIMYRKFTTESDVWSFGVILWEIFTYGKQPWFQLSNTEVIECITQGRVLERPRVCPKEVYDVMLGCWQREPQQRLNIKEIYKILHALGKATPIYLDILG
The target in a further assay is PKG1b (Homo sapiens, UniProt Q13976). In words: radiometric kinase assay, other kinases: PKG1b. It counts as biochemical. The conditions noted are these: duplicate. As to the method:
as §1

Assay [3] concerns NCI-N87 human stomach cancer cells. The assay can be described thus: Cell Viability and Proliferation Assay, NCI-N87. It counts as cell-based. Particulars: after 24 incubation. As to the method:
as §2

PKG1b, sequence (Q13976 1-686 isoform Q13976-2): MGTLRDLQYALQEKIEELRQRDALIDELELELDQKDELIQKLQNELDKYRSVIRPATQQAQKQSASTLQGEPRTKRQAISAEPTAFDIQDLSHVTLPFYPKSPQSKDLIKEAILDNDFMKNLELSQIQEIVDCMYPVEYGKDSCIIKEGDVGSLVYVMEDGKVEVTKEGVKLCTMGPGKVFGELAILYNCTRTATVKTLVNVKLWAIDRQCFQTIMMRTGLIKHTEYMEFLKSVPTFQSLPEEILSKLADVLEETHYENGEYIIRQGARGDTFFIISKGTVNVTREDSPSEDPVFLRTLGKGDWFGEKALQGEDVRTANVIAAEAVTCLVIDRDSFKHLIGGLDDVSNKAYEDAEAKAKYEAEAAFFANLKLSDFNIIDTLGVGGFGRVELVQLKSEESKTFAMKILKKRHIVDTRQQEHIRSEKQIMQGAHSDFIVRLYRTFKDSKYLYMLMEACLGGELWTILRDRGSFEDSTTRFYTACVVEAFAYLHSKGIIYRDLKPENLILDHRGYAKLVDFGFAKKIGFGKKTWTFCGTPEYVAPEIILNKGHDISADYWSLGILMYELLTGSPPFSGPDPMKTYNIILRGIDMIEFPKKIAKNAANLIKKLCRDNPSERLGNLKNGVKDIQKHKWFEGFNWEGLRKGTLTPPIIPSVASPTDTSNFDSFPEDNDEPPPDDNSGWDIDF
FES/FPS, sequence (P07332 whole entry): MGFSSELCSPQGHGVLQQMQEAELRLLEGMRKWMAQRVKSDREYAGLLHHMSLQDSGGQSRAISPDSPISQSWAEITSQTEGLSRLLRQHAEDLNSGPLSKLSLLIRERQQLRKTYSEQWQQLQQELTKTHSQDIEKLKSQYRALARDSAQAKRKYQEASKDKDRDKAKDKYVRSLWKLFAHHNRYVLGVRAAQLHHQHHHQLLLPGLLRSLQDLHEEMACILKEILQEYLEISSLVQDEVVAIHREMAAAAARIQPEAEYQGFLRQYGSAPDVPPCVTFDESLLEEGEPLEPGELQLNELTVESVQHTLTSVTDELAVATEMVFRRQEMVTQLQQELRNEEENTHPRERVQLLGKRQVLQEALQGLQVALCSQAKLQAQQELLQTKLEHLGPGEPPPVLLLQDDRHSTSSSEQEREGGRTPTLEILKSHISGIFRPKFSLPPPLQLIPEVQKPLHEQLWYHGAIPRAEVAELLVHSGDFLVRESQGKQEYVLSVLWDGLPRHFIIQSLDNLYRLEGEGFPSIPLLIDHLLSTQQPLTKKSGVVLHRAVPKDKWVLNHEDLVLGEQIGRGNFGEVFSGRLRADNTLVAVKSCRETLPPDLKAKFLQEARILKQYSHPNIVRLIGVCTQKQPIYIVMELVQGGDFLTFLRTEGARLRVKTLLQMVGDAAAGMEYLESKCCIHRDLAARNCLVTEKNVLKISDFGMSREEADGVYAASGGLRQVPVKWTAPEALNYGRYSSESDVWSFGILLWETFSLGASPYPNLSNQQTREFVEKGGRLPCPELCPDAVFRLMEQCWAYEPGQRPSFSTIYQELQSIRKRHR
T1 sequence (P08069 960-1367 limits assumed): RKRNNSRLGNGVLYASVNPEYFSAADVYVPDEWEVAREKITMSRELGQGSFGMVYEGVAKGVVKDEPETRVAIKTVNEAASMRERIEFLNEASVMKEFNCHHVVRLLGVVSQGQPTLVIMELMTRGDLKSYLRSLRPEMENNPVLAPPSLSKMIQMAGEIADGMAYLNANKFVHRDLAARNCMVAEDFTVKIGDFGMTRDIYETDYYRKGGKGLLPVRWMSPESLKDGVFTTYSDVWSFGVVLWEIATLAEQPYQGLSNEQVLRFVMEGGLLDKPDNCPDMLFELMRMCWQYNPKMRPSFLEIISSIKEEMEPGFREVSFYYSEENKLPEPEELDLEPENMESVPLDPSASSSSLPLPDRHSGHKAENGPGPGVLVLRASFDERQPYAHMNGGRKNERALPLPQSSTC

With `Nc1c(N2CCN(C3CCCCC3)CC2)cc(Nc2ccc(C(=O)O)cc2)c2c1C(=O)c1ccccc1C2=O` [Compound 12, 4-{[4-amino-3-(4-cyclohexylpiperazin-1-yl)-9,10-dioxo-9,10-dihydroanthracen-1-yl]amino}benzoic acid], the IC50 – broadly, the point on the concentration scale where inhibition reaches its midpoint – is greater than 10 µM against IGF-1R; greater than 10 µM against FGFR1; greater than 10 µM in assay [1]; greater than 10 µM at MEK2; roughly 5 µM in [2]; greater than 10 µM against FES/FPS. For the same molecule, the IC50 is greater than 10 µM against VEGFR3/FLT4; greater than 10 µM against ABL1; greater than 10 µM at TrkC; greater than 10 µM against PKG1b; roughly 7 µM in assay [3].

These data come from patent US9855265B2, “Methods for treating cancer with TrkA receptor tyrosine kinase antagonists” (VM Oncology LLC, priority 2014, dated 2018).
